In patent US20030068321A1, “Methods of effecting neuronal activity” (Guilford Pharmaceuticals, Inc., priority 2001, published 2003):
Entries after “also recorded” stand apart in the source; their conditions may differ. Peptide text beside a SMILES is read from it.

Test system: chick sensory neurons from dorsal root ganglia
Experiment: Chick dorsal root ganglion cultures and neurite outgrowth
Format: cell-based
Conditions: 1 mM concentration; whole DRG explants, forty-eight hours after drug treatment
Procedure: Dorsal root ganglia were dissected from chick embryos of ten-day gestation. Whole ganglion explants were cultured on thin layer Matrigel-coated 12 well plates with Liebovitz L15 plus high glucose media supplemented with 2 mM glutamine and 10% fetal calf serum, and also containing 10 μM cytosine […] (Ara C) at 37° C. in an environment containing 5% CO2. Twenty-four hours later, the DRGs were treated with various concentrations of nerve growth factor, immunophilin ligands or combinations of NFG plus drugs. Forty-eight hours after drug treatment, the ganglia were visualized under phase contrast or Hoffman Modulation contrast with a Zeiss Axiovert inverted microscope. Photomicrographs of the explants were made, and neurite outgrowth was quantitated. Neurites longer that the DRG diameter were counted as positive, with total number of neurites quantitated per each experimental condition. Three to four DRGs are cultured per well, and each treatment was performed in duplicate.
The maximal increase in the number of processes, their length and branching is quite similar at maximally effective […] of the cyclophilin ligands and of NGF (100 ng/ml). With progressively increasing concentrations of the various drugs, one observes a larger number of processes, more extensive branching and a grater length of individual processes.

Row | SMILES | neurotrophic effects (promotion of neurite outgrowth in chick sensory neurons)
1 | CC(=O)N1CCC[C@H]1C(=O)N[C@@H](C)C(=O)N1CCC[C@H]1C(=O)N[C@@H](C)C(N)=O [compound 2] (Ac-PAPA-NH2) | promotion of neurite outgrowth; also recorded: potent neurotrophic effects
2 | CC(=O)N1CCC[C@H]1C(=O)NCC(=O)N1CCC[C@H]1C(=O)N[C@@H](Cc1ccccc1)C(N)=O [compound 1] (Ac-PGPF-NH2) | promotion of neurite outgrowth; also recorded: powerful neurotrophic effects
